By IC50 is commonly meant the concentration that inhibits the measured activity by half. Read a low IC50 as greater potency.

SMILES strings stand for the structures. Where a name gives a salt, the structure may show the parent alone.

The first experiment has as its system 293T-HRE-GFP-luc cells. Briefly: Cell-based reporter assay for IC50 determinations (HRE-luciferase, hypoxia). As to conditions: 6 h, 6 hrs hypoxia (1% O2), luminescence. The method, boiled down:
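293T-HRE-GFP-luc cells were pre-incubated with serially diluted compounds for 30 min under normoxia, then held 6 hrs in hypoxia (1% O2, 37° C). HRE-driven luciferase read by Steadylite Plus luminescence; IC50 from four-parameter logistic fit.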
As for `O=c1ccc(-c2cc(-c3ccc(OC(F)(F)F)cc3)no2)cn1Cc1cccc(N2CCCS2(=O)=O)c1` [Example 252, 1-(3-(1,1-dioxidoisothiazolidin-2-yl)benzyl)-5-(3-(4-(trifluoromethoxy)phenyl)isoxazol-5-yl)pyridin-2(1H)-one], the 50% inhibitory concentration (IC50) is under 0.1 µM.

Turning to `Cc1ccc(-c2nc(-c3ccc(OC(F)(F)F)cc3)no2)c(=O)n1Cc1cccc(S(C)(=O)=O)c1` [Example 267, 1-[(3-methanesulfonylphenyl)methyl]-6-methyl-3-{3-[4-(trifluoromethoxy)phenyl]-1,2,4-oxadiazol-5-yl}-1,2-dihydropyridin-2-one], the IC50 lay in the range of 0.1 to 1 µM.

For `COC(=O)c1cccc(Cn2cc(-c3nc(-c4ccc(OC(F)(F)F)cc4)no3)ccc2=O)c1` [Example 107, methyl 3-((2-oxo-5-(3-(4-(trifluoromethoxy)phenyl)-1,2,4-oxadiazol-5-yl)pyridin-1(2H)-yl)methyl)benzoate], the IC50 lay in the range of 0.1 to 1 µM.

`CN1CCN(c2cccc(Cn3cc(-c4noc(-c5ccc(S(=O)(=O)C(F)(F)F)cc5)n4)ccc3=O)c2)CC1` [Example 188, 1-{[3-(4-methylpiperazin-1-yl)phenyl]methyl}-5-[5-(4-trifluoromethanesulfonylphenyl)-1,2,4-oxadiazol-3-yl]-1,2-dihydropyridin-2-one]: the IC50 was under 0.1 µM.

The molecule `CN1CCN(c2cccc(Cn3cc(-c4noc(-c5ccc(S(C)(=O)=O)cc5)n4)ccc3=O)c2)CC1` [Example 186, 5-[5-(4-methanesulfonylphenyl)-1,2,4-oxadiazol-3-yl]-1-{[3-(4-methylpiperazin-1-yl)phenyl]methyl}-1,2-dihydropyridin-2-one] displayed a 50% inhibitory concentration (IC50) of under 0.1 µM.

`CC(C)Oc1ccc(-c2nnc(-c3ccc(=O)n(Cc4cccc(N5CCC(S(C)(=O)=O)CC5)c4)n3)o2)cc1` [Example 106, 6-(5-(4-Isopropoxyphenyl)-1,3,4-oxadiazol-2-yl)-2-(3-(4-(methylsulfonyl)piperidin-1-yl)benzyl)pyridazin-3(2H)-one] had a half-inhibitory concentration (IC50) of under 0.1 µM.

As for `Cc1ccc(-c2nc(-c3ccc(OC(F)(F)F)cc3)no2)c(=O)n1Cc1ccnc(N2CCN(C)CC2)c1` [Example 5, 1-methyl-4-(4-((6-methyl-2-oxo-3-(3-(4-(trifluoromethoxy)phenyl)-1,2,4-oxadiazol-5-yl)pyridin-1(2H)-yl)methyl)pyridin-1-ium-2-yl)piperazin-1-ium bis-trifluoroacetate], the IC50 was under 0.1 µM.

`O=c1c(-c2nc(-c3ccc(OC(F)(F)F)cc3)no2)cccn1Cc1ccnc(N2CCOCC2)c1` [Example 127, 1-((2-morpholinopyridin-4-yl)methyl)-3-(3-(4-(trifluoromethoxy)phenyl)-1,2,4-oxadiazol-5-yl)pyridin-2(1H)-one] returned an IC50 of 0.1 to 1 µM.

`COCCOc1cccc(Cn2cc(-c3noc(-c4ccc(S(=O)(=O)C(C)C)cc4)n3)ccc2=O)c1` [Example 235, 1-{[3-(2-methoxyethoxy)phenyl]methyl}-5-{5-[4-(propane-2-sulfonyl)phenyl]-1,2,4-oxadiazol-3-yl}-1,2-dihydropyridin-2-one] had a 50% inhibitory concentration (IC50) of 0.1 to 1 µM.

`CN1CCN(c2cccc(Cn3cccc(C(=O)Nc4ccc(OC(F)(F)F)cc4)c3=O)c2)CC1` [Example 11, 1-Methyl-4-(3-((2-oxo-3-((4-(trifluoromethoxy)phenyl)carbamoyl)pyridin-1(2H)-yl)methyl)phenyl)piperazin-1-ium trifluoroacetate] had an IC50 of under 0.1 µM.

Regarding `COCCOc1cccc(Cn2cc(-c3noc(-c4ccc(C5(C(F)(F)F)CC5)cc4)n3)ccc2=O)c1` [Example 71, 1-(3-(2-Methoxyethoxy)benzyl)-5-(5-(4-(1-(trifluoromethyl)cyclopropyl)phenyl)-1,2,4-oxadiazol-3-yl)pyridin-2(1H)-one], the half-maximal inhibitory concentration (IC50) was under 0.1 µM.

`Cc1cnc(-c2nc(-c3ccc(OC(F)(F)F)cc3)no2)nc1Cc1cccc(N2CCN(C)CC2)c1` [Example 19, 5-(5-methyl-4-(3-(4-methylpiperazin-1-yl)benzyl)pyrimidin-2-yl)-3-(4-(trifluoromethoxy)phenyl)-1,2,4-oxadiazole] showed an IC50 of under 0.1 µM.

`COCCOc1cccc(Cn2cc(-c3noc(-c4ccc(C(C)(C)C#N)cc4)n3)ccc2=O)c1` [Example 68, 2-(4-(3-(1-(3-(2-Methoxyethoxy)benzyl)-6-oxo-1,6-dihydropyridin-3-yl)-1,2,4-oxadiazol-5-yl)phenyl)-2-methylpropanenitrile]: the IC50 was in the range of 0.1 to 1 µM.

Turning to `COC(=O)/C=C/c1cccc(Cn2cc(-c3nc(-c4ccc(OC(F)(F)F)cc4)no3)ccc2=O)c1` [Example 172, methyl (2E)-3-{3-[(2-oxo-5-{3-[4-(trifluoromethoxy)phenyl]-1,2,4-oxadiazol-5-yl}-1,2-dihydropyridin-1-yl)methyl]phenyl}prop-2-enoate], the IC50 was under 0.1 µM.

Turning to `COCCOc1cccc(Cn2cc(-c3noc(-c4ccc(C5=CCOCC5)cc4)n3)ccc2=O)c1` [Example 212, 5-{5-[4-(3,6-dihydro-2H-pyran-4-yl)phenyl]-1,2,4-oxadiazol-3-yl}-1-{[3-(2-methoxyethoxy)phenyl]methyl}-1,2-dihydropyridin-2-one], the IC50 is under 0.1 µM.

With `COCCOc1cccc(Cn2cc(-c3noc(-c4ccc(C(C)=O)cc4)n3)ccc2=O)c1` [Example 208, 5-[5-(4-acetylphenyl)-1,2,4-oxadiazol-3-yl]-1-{[3-(2-methoxyethoxy)phenyl]methyl}-1,2-dihydropyridin-2-one], the 50% inhibitory concentration (IC50) is under 0.1 µM.

In turn, `Cc1ccc(-c2nc(-c3ccc(OC(F)(F)F)cc3)no2)c(=O)n1Cc1ccnc(N2CCCCC2)c1` [Example 15, 4-((6-Methyl-2-oxo-3-(3-(4-(trifluoromethoxy)phenyl)-1,2,4-oxadiazol-5-yl)pyridin-1(2H)-yl)methyl)-2-(piperidin-1-yl)pyridin-1-ium trifluoroacetate] had an IC50 of under 0.1 µM.

`O=c1ccc(-c2nc(-c3ccc(OC(F)(F)F)cc3)no2)cn1Cc1cccc([N+](=O)[O-])c1` [Example 146, 1-[(3-nitrophenyl)methyl]-5-{3-[4-(trifluoromethoxy)phenyl]-1,2,4-oxadiazol-5-yl}-1,2-dihydropyridin-2-one] yielded an IC50 of 0.1 to 1 µM.

As to `CN(C)C(=O)/C=C/c1cccc(Cn2cc(-c3nc(-c4ccc(OC(F)(F)F)cc4)no3)ccc2=O)c1` [Example 40, (2E)-N,N-dimethyl-3-{3-[(2-oxo-5-{3-[4-(trifluoromethoxy)phenyl]-1,2,4-oxadiazol-5-yl}-1,2-dihydropyridin-1-yl)methyl]phenyl}prop-2-enamide], the half-maximal inhibitory concentration (IC50) is under 0.1 µM.

Consider `CS(=O)(=O)c1cccc(Cn2nc(-c3nc(-c4ccc(OC(F)(F)F)cc4)no3)ccc2=O)c1` [Example 118, 2-(3-(methylsulfonyl)benzyl)-6-(3-(4-(trifluoromethoxy)phenyl)-1,2,4-oxadiazol-5-yl)pyridazin-3(2H)-one], for which the 50% inhibitory concentration (IC50) was under 0.1 µM.

In turn, `CN1CCN(C(=O)c2cccc(Cn3cc(-c4nc(-c5ccc(OC(F)(F)F)cc5)no4)ccc3=O)c2)CC1` [Example 115, 1-(3-(4-methylpiperazine-1-carbonyl)benzyl)-5-(3-(4-(trifluoromethoxy)phenyl)-1,2,4-oxadiazol-5-yl)pyridin-2(1H)-one] yielded an IC50 of under 0.1 µM.

On to `O=c1ccc(-c2nc(-c3ccc(OC(F)(F)F)cc3)no2)cn1Cc1cccc(C(O)CO)c1` (stereo not drawn) [Example 53, 1-(3-(1,2-Dihydroxyethyl)benzyl)-5-(3-(4-(trifluoromethoxy)phenyl)-1,2,4-oxadiazol-5-yl)pyridin-2(1H)-one], for which the IC50 was under 0.1 µM.

Molecule `COCCOc1cccc(Cn2cc(-c3noc(-c4ccc(C#N)cc4)n3)ccc2=O)c1` [Example 194, 4-[3-(1-{[3-(2-methoxyethoxy)phenyl]methyl}-6-oxo-1,6-dihydropyridin-3-yl)-1,2,4-oxadiazol-5-yl]benzonitrile] returned an IC50 of under 0.1 µM.

Regarding `CS(=O)(=O)c1cccc(Cn2cc(-c3nc(-c4ccc(OC(F)(F)F)cc4)no3)ccc2=O)c1` [Example 123, 1-(3-(methylsulfonyl)benzyl)-5-(3-(4-(trifluoromethoxy)phenyl)-1,2,4-oxadiazol-5-yl)pyridin-2(1H)-one], the IC50 is under 0.1 µM.

The molecule `O=c1ccc(-c2nc(-c3ccc(OC(F)(F)F)cc3)no2)nn1Cc1cccc(OCCO)c1` [Example 179, 2-{[3-(2-hydroxyethoxy)phenyl]methyl}-6-{3-[4-(trifluoromethoxy)phenyl]-1,2,4-oxadiazol-5-yl}-2,3-dihydropyridazin-3-one] had an IC50 of under 0.1 µM.

Molecule `COCCOc1cccc(Cn2cc(-c3noc(-c4ccc(N5CCCC5)cc4)n3)ccc2=O)c1` [Example 229, 1-{[3-(2-methoxyethoxy)phenyl]methyl}-5-{5-[4-(pyrrolidin-1-yl)phenyl]-1,2,4-oxadiazol-3-yl}-1,2-dihydropyridin-2-one] gave an IC50 of under 0.1 µM.

`COCCOc1cc(Cn2cc(-c3nc(-c4ccc(OC(F)(F)F)cc4)no3)ccc2=O)ccn1` [Example 51, 1-{[2-(2-Methoxyethoxy)pyridin-4-yl]methyl}-5-{3-[4-(trifluoromethoxy)phenyl]-1,2,4-oxadiazol-5-yl}-1,2-dihydropyridin-2-one] registered a concentration for half-maximal inhibition (IC50) of 0.1 to 1 µM.

`CC(C)Oc1ccc(-c2nc(-c3ccc(=O)n(Cc4cccc(C(C)(C)O)c4)c3)no2)cc1` [Example 76, 1-(3-(2-Hydroxypropan-2-yl)benzyl)-5-(5-(4-isopropoxyphenyl)-1,2,4-oxadiazol-3-yl)pyridin-2(1H)-one] had an IC50 of under 0.1 µM.

Still in this experiment, the particulars now being: 6 hrs hypoxia (1% O2), luminescence.
Molecule `CC(C)(C)[Si](C)(C)OCCOc1cccc(Cn2nc(-c3nc(-c4ccc(OC(F)(F)F)cc4)no3)ccc2=O)c1` [Example 178, 2-[(3-{2-[(tert-butyldimethylsilyl)oxy]ethoxy}phenyl)methyl]-6-{3-[4-(trifluoromethoxy)phenyl]-1,2,4-oxadiazol-5-yl}-2,3-dihydropyridazin-3-one] returned an IC50 of 0.1 to 1 µM.

For `O=c1ccc(-c2nc(-c3ccc(OC(F)(F)F)cc3)no2)cn1Cc1cccc(OCC(O)CO)c1` (single isomer, unassigned) [Example 55a, (2R)- or (2S)-1-(3-(2,3-dihydroxypropoxy)benzyl)-5-(3-(4-(trifluoromethoxy)phenyl)-1,2,4-oxadiazol-5-yl)pyridin-2(1H)-one], the IC50 is under 0.1 µM.

The values are drawn from patent US20140073634A1 (Institute For Applied Cancer Science/The University of …, priority 2012, published 2014).
